In paper PMC5571359, “Screening the Medicines for Malaria Venture Pathogen Box across Multiple Pathogens Reclassifies Starting Points for Open-Source Drug Discovery” (Antimicrobial Agents and Chemotherapy, 2017):
Like-named read-outs stand apart in the source and are kept apart here.

Columns and labels:
HEK293 cells = test: HEK293 resazurin cell cytotoxicity assay; settings: Homo sapiens
[1] = test system: P. falciparum stage V gametocytes; settings: cited from earlier work; for activity against gametocytes (stage V), PBox supporting information: ref Pbox supporting information; for IC50: stage V gametocytes, read-out: PF stage V GAMS PBox IC50
P. falciparum ABS = settings: cited from earlier work; for EC50: ChEMBL Data
[2] = test system: NF54-pfs16-LUC-GFP stage IV gametocytes; test: Plasmodium falciparum late stage gametocyte (LSG) image-based assay; format: cell-based; settings: for IC50: Plasmodium falciparum
[3] = test system: Plasmodium falciparum 3D7 asexual blood stage; test: microbe, parasite or virus in culture
T. brucei rhodesiense = settings: ref Pbox supporting information; read-out: T .b. rohdensie Pbox IC50; cited from earlier work
[4] = test system: T. b. brucei 427 bloodstream trypanosomes; test: T. b. brucei resazurin viability assay; format: cell-based, Trypanosoma brucei brucei
[5] = test system: L. infanium (macrophages); set-up: method as in Pbox supporting information; settings: ref Pbox supporting information; cited from earlier work
[6] = test system: T. cruzi C4 β-galactosidase reporter parasite in MRC 5SV2 host cells; settings: cited from earlier work
HepG2 = settings: cited from earlier work; for CC50: read-out: HepG2 PBox CC50 µM
T. brucei brucei = settings: ref Pbox supporting information; read-out: T.b. brucei Pbox IC50; cited from earlier work
[7] = test system: T. cruzi intracellular amastigotes; test: Intracellular anti-Trypanosoma cruzi image-based assay (amastigotes); format: cell-based; settings: for IC50: Trypanosoma cruzi, read-out: T cruzi Discovery Biology IC50
[8] = test system: L. donovani MHOM/IN/80/DD8 intracellular amastigotes; test: Leishmania donovani intracellular amastigote assay in THP-1 cells; format: cell-based; settings: Leishmania donovani, THP-1, intracellular amastigotes
liver stage = settings: cited from earlier work
[9] = HEK293, read-out: HEK % Inhibition 20uM/IC50 Discovery Biology (IA)
[10] = ref PBox supporting information
[11] = P. falciparum 3D7, ref PBox supporting information, read-out: Pf 3D7 Pbox IC50
[12] = NF54, read-out: Pf Stage IV GAMS Discovery Biology IC50 µM, stage IV gametocytes
[13] = ref Pathogen Box supporting information
[14] = 3D7, read-out: Pf 3D7 Discovery Biology IC50 µM, P. falciparum 3D7 asexual blood stage, Discovery Biology
[15] = TCMDC, read-out: TCMDC (ref 93) EX50
[16] = Pf 3D7, ref Pathogen Box supporting information, read-out: Pf 3D7 Pbox IC50
[17] = NF54, read-out: Pf Stage IV GAMS Discovery Biology IC50 µM, stage IV gametocytes, Discovery Biology
[18] = HEK293, read-out: HEK % Discovery Biology IC50
[19] = ref Pbox supporting information, read-out: T. cruzi Pbox IC50
[20] = HepG2, ref PBox supporting information
[21] = 3D7, read-out: Pf 3D7 Discovery Biology IC50, P. falciparum 3D7 asexual blood stage
[22] = HEK293, read-out: HEK % Inhibition 20uM/IC50 Discovery Biology
[23] = Trypanosoma brucei; read-out: T b.brucei Discovery Biology IC50
[24] = 7 days exposure, ref PBox supporting information, read-out: T. cruzi IC50 in the PBox supporting information file
[25] = some values marked *, read-out: L, donovani Discovery Biology IC50
[26] = 3D7, read-out: Antiplasmodial IC50 (ABS), PBox compounds, P. falciparum 3D7
[27] = ref Pbox supporting information

SMILES | activity against gametocytes (stage V), PBox supporting information [1] | IC50 [1, 10] [nM] | IC50 (P. falciparum ABS; [11]) [nM] | activity in the Discovery Biology stage IV gametocyte (LSG) assay [2] | IC50 [2, 12] [µM] | IC50 (T. brucei rhodesiense) [nM] | IC50 [5] [nM] | IC50 [6, 19] [nM] | HepG2 PBox CC20 (HepG2; [20]) [nM] | IC50 (T. brucei brucei) [nM] | IC50 [4, 23] [nM] | other results
O=C(Nc1nc(-c2ccccn2)cs1)C1CC1c1ccccc1F (stereo not shown) [MMV1028806] | demonstrate activity | 520 | > 2000 | demonstrate activity | 0.42 | – | – | – | – | – | – | IC50 (HEK293 cells; [9]): > 20000 nM
Cc1cc(C)nc(-n2nc(C)cc2Nc2ccccc2)n1 [MMV062221] | demonstrate activity | 220 | > 2000 | demonstrate activity | 0.57 | – | – | – | – | – | – | IC50 (HEK293 cells; [9]): > 20000 nM
COc1cccc(CC(=O)N2CCC(n3c(C)nc4ccc(F)cc43)CC2)c1 [MMV020081] | demonstrate activity | – | – | demonstrate activity | – | – | – | – | – | – | – | IC50 [1, 13]: 310 nM; IC50 [3, 14]: 0.21 µM; EC50 (P. falciparum ABS; [15]): 910 nM; IC50 (P. falciparum ABS; [16]): 240 nM; IC50 [2, 17]: 0.68 µM
Cc1nn(C)c(C)c1NS(=O)(=O)c1c(Cl)cc(-c2ccnc(N3CCNCC3)c2)cc1Cl [MMV688180] | – | – | – | – | – | < 130 | 1010 | 850 | 45.4 | < 130 | – | IC50 (HEK293 cells; [18]): 660 nM; IC50 ([4]; Trypanosoma brucei, read-out: T b.brucei Discovery Biology IC50): 10 nM; IC50 [3, 21]: 0.63 µM; IC50 [7]: 2910 nM
N=C(N)Nc1ccc(-c2ccc(-c3ccc(NC(=N)N)c(Cl)c3)o2)cc1Cl [MMV688271] | – | – | – | – | – | 200 | 10200 | 660 | 13500 | 600 | 520 | IC50 (HEK293 cells; [22]): > 20000 nM; IC50 [6, 24]: < 1000 nM; IC50 [8, 25]: 3310 nM; IC50 [3, 26]: 1.21 µM; activity against T. cruzi in the Discovery Biology assay [7]: lack of activity; activity against T. cruzi at 8 μM in the Discovery Biology assay [7]: no activity
c1ccc(-c2cc(N3CCCCC3)c3ccccc3n2)nc1 [MMV560185] | demonstrate activity | 510 | > 2000 | demonstrate activity | 0.71 | – | – | – | – | – | – | IC50 (HEK293 cells; [9]): > 20000 nM; CC50 (HepG2; [10]): > 10 µM; IC50 (liver stage; [27]): 9700 nM
O=C(Nc1ccc2c(c1)B(O)OC2)c1ccccc1C(F)(F)F [MMV652003] | – | – | – | – | – | 230 | 1410 | 270 | 400 | 150 | 110 | inhibition at 20 µM (HEK293 cells; [22]): 78%; IC50 [8, 25]: 1250 nM; IC50 [3, 26]: 0.92 µM
CNC(=O)c1nn(C)c2c1C(C)(C)Cc1cnc(Nc3ccc(N4CCN(C)CC4)cc3)nc1-2 [MMV676602] | – | – | – | – | – | < 130 | 850 | 1050 | – | < 130 | 170 | IC50 (HEK293 cells; [18]): 1300 nM; HepG2 PBox CC20 (HepG2): <260 nM; IC50 [8, 25]: 1430 nM; IC50 [3, 21]: 3.17 µM
CCCn1c(NC(=O)c2ccc3ccccc3n2)nc2ccccc21 [MMV1030799] | demonstrate activity | 560 | > 2000 | demonstrate activity | 2.5 | – | – | – | – | – | – | IC50 (HEK293 cells; [9]): > 20000 nM; IC50 ([3]; 3D7, read-out: Pf 3D7 Discovery Biology IC50 µM, P. falciparum 3D7 asexual blood stage): 2.59 µM
N=C(N)Nc1ccc(-c2ccc(-c3ccc(NC(=N)N)cc3Cl)o2)c(Cl)c1 [MMV688179] | – | – | – | – | – | 230 | 1010 | 290 | 6800 | 1030 | 5680 | IC50 (HEK293 cells; [22]): > 20000 nM; IC50 [6, 24]: < 1000 nM; IC50 [3, 26]: 0.59 µM; activity against T. cruzi in the Discovery Biology assay [7]: lack of activity; activity against T. cruzi at 8 μM in the Discovery Biology assay [7]: no activity; IC50 ([2]; NF54, read-out: Pf Stage IV GAMS Discovery Biology IC50, stage IV gametocytes): 4.1 µM
O=C(Nc1ccc(F)c(-c2nc3cc(-c4ccccc4)cnc3[nH]2)c1)N1CCCC1 [MMV688372] | – | – | – | – | – | < 130 | 160 | < 130 | – | < 130 | 20 | IC50 (HEK293 cells; [18]): 4600 nM; IC50 ([8]; PBox compounds, read-out: IC50 L. donovani (Discovery Biology)): 1150 nM; IC50 [8, 25]: 1510 nM; IC50 ([7]; intracellular amastigotes): 190 nM
Cc1ccc(-c2nc(CN(Cc3ccccn3)C(C)C)cs2)o1 [MMV1088520] | – | 450 | > 2000 | – | 0.67 | – | – | – | – | – | – | inhibition at 20 µM (HEK293 cells; [22]): 79%
Cc1cc(Nc2ccc(C(F)(F)F)cc2)n2ccnc2n1 [MMV011229] | ktba | – | – | did not find this compound to be active | – | – | – | – | – | – | – | activity against liver stage, PBox supporting information (liver stage; [27]): ktba; IC50 (P. falciparum ABS; ref Pbox supporting information, read-out: ABS activity, PBox supporting information): 380 nM
Nc1nccc2ccc(-c3ccc4nccn4c3)cc12 [MMV023233] | demonstrate activity | – | – | demonstrate activity | – | – | – | – | – | – | 3290 | inhibition at 20 µM (HEK293 cells; [22]): 74%; IC50 [1, 13]: 400 nM; IC50 [3, 14]: 0.11 µM; EC50 (P. falciparum ABS; [15]): 100 nM; IC50 (P. falciparum ABS; [16]): 160 nM; IC50 [2, 17]: 3.08 µM
Cc1ccc(NC(=O)c2nc[nH]c2C(=O)Nc2nc3ccccc3[nH]2)c(C)c1 [MMV011903] | – | – | – | – | – | – | – | – | – | – | – | IC50 [1, 13]: > 8300 nM; CC50 (HepG2; HepG2 CC50, ref Pathogen Box supporting information): > 10 µM; IC50 (liver stage; liver stage, ref Pathogen Box supporting information, read-out: LIVER STAGE Pbox IC50): > 10000 nM; EC50 (P. falciparum ABS; NITD, read-out: NITD (ref 94) EC50): 730 nM; IC50 (P. falciparum ABS; [16]): 360 nM
CCc1ccccc1-n1c(C)cn2c3c(=O)n(C(C(=O)OC)C(C)C)c(=O)n(C)c3nc12 (stereo not shown) [MMV688550] | – | – | – | – | – | < 130 | > 32000 | 990 | 44300 | < 130 | 130 | IC50 (HEK293 cells; [22]): > 20000 nM; selectivity index (SI) T. brucei brucei versus HEK293 ([4]; HEK293): > 154; IC50 [3, 26]: 2.48 µM; selectivity index (SI) T. cruzi versus HEK293 ([7]; HEK293): > 31; IC50 ([7]; intracellular amastigotes): 640 nM
